# Experimental data reported in ChEMBL document CHEMBL1142622, “Inhibition of phospholipase cgamma1 and cancer cell proliferation by triterpene esters from Uncaria rhynchophylla” (J Nat Prod, 2000).
# pIC50: −log10 of the molar value.
# Key:
# [1] = molecular target: T1, 1-phosphatidylinositol 4,5-bisphosphate phosphodiesterase gamma-1 (Homo sapiens, UniProt P19174); assay: Inhibition of PLCgamma1
# T1 sequence (P19174 whole entry): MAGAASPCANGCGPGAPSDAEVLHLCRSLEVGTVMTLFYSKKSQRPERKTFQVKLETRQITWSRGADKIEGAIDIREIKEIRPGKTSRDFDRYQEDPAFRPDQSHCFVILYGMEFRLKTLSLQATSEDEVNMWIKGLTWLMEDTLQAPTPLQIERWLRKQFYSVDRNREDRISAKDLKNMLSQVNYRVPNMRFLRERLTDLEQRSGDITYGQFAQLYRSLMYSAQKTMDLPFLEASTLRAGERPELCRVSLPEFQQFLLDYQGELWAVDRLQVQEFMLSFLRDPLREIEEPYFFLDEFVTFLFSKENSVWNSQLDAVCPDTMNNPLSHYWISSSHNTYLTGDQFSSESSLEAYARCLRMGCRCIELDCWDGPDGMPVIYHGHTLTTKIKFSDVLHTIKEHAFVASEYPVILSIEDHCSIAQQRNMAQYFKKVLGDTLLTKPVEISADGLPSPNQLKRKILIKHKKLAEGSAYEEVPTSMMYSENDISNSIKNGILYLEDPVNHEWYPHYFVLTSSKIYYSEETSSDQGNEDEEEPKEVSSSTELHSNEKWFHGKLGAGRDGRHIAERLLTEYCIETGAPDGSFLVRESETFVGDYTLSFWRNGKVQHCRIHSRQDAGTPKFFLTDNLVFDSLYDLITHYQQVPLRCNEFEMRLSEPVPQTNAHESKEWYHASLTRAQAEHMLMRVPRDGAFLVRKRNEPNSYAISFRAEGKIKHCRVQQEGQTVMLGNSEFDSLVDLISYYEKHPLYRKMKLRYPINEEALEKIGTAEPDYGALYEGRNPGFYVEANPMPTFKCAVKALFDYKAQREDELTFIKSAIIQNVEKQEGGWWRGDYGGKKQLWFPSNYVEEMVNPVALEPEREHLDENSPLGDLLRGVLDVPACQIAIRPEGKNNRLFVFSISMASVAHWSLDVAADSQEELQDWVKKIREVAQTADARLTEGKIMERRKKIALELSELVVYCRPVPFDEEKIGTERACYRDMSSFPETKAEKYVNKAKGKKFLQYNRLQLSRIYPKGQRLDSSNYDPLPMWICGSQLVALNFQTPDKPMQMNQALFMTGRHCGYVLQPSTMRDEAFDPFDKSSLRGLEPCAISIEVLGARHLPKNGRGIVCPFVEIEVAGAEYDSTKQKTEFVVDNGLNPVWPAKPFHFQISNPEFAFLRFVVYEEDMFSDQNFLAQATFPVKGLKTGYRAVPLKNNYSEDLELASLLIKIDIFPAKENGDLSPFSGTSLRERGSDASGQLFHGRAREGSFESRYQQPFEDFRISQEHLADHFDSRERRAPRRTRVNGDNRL
# NIH3T3 = assay: Inhibition of PDGF-induced phosphotidyl inositol turnover in PLCgamma1 expressing mouse NIH3T3 cells; type: functional, cell-based
# HCT-15 = assay: Antiproliferative activity against PLCgamma1 expressing human HCT15 cells; type: functional, cell-based
# HT1197 = assay: Antiproliferative activity against PLCgamma1 expressing human HT1197 cells; type: functional, cell-based
pIC50 [1],IC50 (HCT-15) [µg/mL],Structure (SMILES),pIC50 (NIH3T3),IC50 (HT1197) [µg/mL]
4.54,–,O=c1cc(-c2ccc(O)c(-c3c(O)cc(O)c4c(=O)cc(-c5ccc(O)cc5)oc34)c2)oc2cc(O)cc(O)c12 [AMENTOFLAVONE],5.04,–
–,13.4,COc1cccc2c1C(=O)c1c(O)c3c(c(O)c1C2=O)C[C@@](O)(C(=O)CO)C[C@@H]3O[C@H]1C[C@H](N)[C@H](O)[C@H](C)O1 [DOXORUBICIN],–,0.03
